Measurements from BindingDB's records for doi:10.1021/jm970857f (Eli Lilly, 1998).
Structures can show the parent of a compound that is named as a salt.

Molecular target: T1, Alpha-1A adrenergic receptor (Rattus norvegicus, UniProt P43140)
T1 sequence (P43140 whole entry): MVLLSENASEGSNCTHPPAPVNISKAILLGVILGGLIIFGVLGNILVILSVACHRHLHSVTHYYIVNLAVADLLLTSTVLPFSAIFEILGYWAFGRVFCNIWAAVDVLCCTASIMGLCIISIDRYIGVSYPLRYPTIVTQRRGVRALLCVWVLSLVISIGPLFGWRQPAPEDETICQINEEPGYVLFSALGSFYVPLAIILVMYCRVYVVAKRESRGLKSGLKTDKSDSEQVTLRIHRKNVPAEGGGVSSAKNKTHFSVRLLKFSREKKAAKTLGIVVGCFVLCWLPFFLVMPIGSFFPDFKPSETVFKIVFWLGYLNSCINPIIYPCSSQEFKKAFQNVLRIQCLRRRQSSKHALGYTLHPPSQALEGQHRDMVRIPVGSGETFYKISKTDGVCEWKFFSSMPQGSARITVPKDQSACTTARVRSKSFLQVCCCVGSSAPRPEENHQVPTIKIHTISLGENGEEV

`CC(C)n1nc(C(=O)NC2CCN(CCNS(C)(=O)=O)CC2)c2ccccc21` [N-(1-(2-((N-Methylsulfonyl)amino)ethyl)piperidin-4-yl)-1-isopropylindazole-3-carboxamide Maleate] was tested, and the Ki was > 10 µM.

For `CC(C)n1nc(C(=O)NC2CCN(Cc3ccccc3)CC2)c2ccccc21` [N-(1-Benzylpiperidin-4-yl)-1-isopropylindazole-3-carboxamide Hydrochloride], the Ki was > 10 µM.

For `CC(C)n1nc(C(=O)NCCN2CCC(NC(=O)OCc3ccccc3)CC2)c2ccccc21` [N-(2-(4-((Benzyloxycarbonyl)amino)-1-piperidinyl)-ethyl)-1-isopropylindazole-3-carboxamide Oxalate], the Ki was > 10 µM.
